We go through nine compounds from US11352344B2, “Antagonists of the muscarinic acetylcholine receptor M4” (Vanderbilt University, priority 2017, dated 2022).

One assay concerns mice. Kind of assay: haloperidol-induced catalepsy, a model of parkinsonian motor disability. Format: in vivo. An excerpt:
Furthermore, haloperidol-induced catalepsy, a model of parkinsonian motor disability, is reduced in M4 knockout mice as compared to wild-type controls. […] The reversal by scopolamine was uncommonly robust and more pronounced than we observe with agents targeting a number of other targets being evaluated for potential antiparkinsonian effects, including metabotropic glutamate (mGlu) receptors mGlu4 or mGlu5, A2A adenosine receptors, and NMDA receptors. […] Taken together with the extensive studies of M4 modulation of basal ganglia and motor function, these studies provide compelling evidence that M4 is the dominant mAChR subtype involved in the antiparkinsonian effects of non-selective mAChR antagonists and provide support for discovery and development of selective M4 antagonists for treatment of neurodegenerative disease such as PD, dystonia, tardive dyskinesia and other movement disorders.

The next assay deals with M4 knockout mice. To be noted: but not the other four mAChR subtypes (M1-3,5); cited from earlier work.
In a further assay the target is T1, Human M4 (Homo sapiens, UniProt P08173).
T1 construct: expressed in transfected cells; host or cells: CHO-K1 (Chinese hamster ovary) cells, stably co-transfected with Gqi5
T1 sequence (P08173 1-479): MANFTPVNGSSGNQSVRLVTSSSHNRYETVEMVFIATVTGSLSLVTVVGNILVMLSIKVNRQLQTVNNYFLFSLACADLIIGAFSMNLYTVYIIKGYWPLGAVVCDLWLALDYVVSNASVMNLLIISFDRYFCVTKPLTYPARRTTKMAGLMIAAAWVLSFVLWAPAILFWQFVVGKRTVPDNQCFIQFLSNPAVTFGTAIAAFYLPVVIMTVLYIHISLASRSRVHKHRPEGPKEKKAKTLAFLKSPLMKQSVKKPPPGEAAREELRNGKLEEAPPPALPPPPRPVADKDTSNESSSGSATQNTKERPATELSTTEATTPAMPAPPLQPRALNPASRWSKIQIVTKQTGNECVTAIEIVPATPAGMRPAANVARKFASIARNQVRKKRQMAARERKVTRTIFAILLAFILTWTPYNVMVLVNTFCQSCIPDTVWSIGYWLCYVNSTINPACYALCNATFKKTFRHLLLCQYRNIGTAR
Kind of assay: mAChR M4 cell-based functional assay (calcium flux, antagonism of EC80 acetylcholine response). To be noted: for remaining activity at 30 µM: % ACh maximum at 30 μM, human M4, read-out: Emin; for IC50: M4/Gqi5/CHO-K1 cells, decrease of response to EC80 acetylcholine. The procedure: Human or rat M4 cDNA, along with the chimeric G protein Gqi5, were transfected into Chinese hamster ovary (CHO-K1) cells purchased from the American Type Culture Collection using Lipofectamine2000. M4/Gqi5/CHO cells were grown in Ham's F-12 medium containing 10% heat-inactivated fetal bovine serum (FBS), 20 mM HEPES, 500 μg/mL G418 sulfate, and 200 μg/mL Hygromycin B.
For high throughput measurement of agonist-evoked increases in intracellular calcium, CHO-K1 cells stably expressing muscarinic receptors were plated in growth medium lacking G418 and hygromycin at 15,000 cells/20 μL/well in Greiner 384-well black-walled, tissue culture (TC)-treated, clear-bottom plates (VWR). Cells were incubated overnight at 37° C. and 5% CO2. The next day, cells were washed using an ELX 405 (BioTek) with assay buffer; the final volume was then aspirated to 20 μL. Next, 20 μL of a 2.3 μM stock of Fluo-4/acetoxymethyl ester (Invitrogen, Carlsbad, Calif.), prepared as a 2.3 mM stock in DMSO and mixed in a 1:1 ratio with 10% (w/v) Pluronic F-127 and diluted in assay buffer, was added to the wells and the cell plates were incubated for 50 min at 37° C. and 5% CO2. Dye was removed by washing with the ELX 405 and the final volume was aspirated to 20 μL. Compound master plates were formatted in a 10 point concentration-response curve (CRC) format (1:3 dilutions) in 100% DMSO with a starting concentration of 10 or 1 mM using a BRAVO liquid handler (Agilent). Test compound CRCs were then transferred to daughter plates (240 nL) using the Echo acoustic plate reformatter (Labcyte, Sunnyvale, Calif.) and then diluted into assay buffer (40 μL) to a 2× stock using a Thermo Fisher Combi (Thermo Fisher Scientific, Waltham, Mass.).
Calcium flux was measured using the Functional Drug Screening System (FDSS) 6000 or 7000 (Hamamatsu Corporation, Tokyo, Japan) as an increase in the fluorescent static ratio. Compounds were applied to cells (20 μL, 2×) using the automated system of the FDSS at 2 seconds into the protocol and the data were collected at 1 Hz. At 143 s, 10 μL of an EC20 concentration of the muscarinic receptor agonist acetylcholine was added (5×), followed by the addition of 12 μL of an EC80 concentration of acetylcholine at the 268 s time point (5×). Agonist activity was analyzed as a concentration-dependent increase in calcium mobilization upon compound addition. Positive allosteric modulator activity was analyzed as a concentration-dependent increase in the EC20 acetylcholine response. Antagonist activity was analyzed as a concentration-dependent decrease in the EC80 acetylcholine response; for the purposes of the tables herein, an IC50 (inhibitory concentration 50) was calculated as a concentration-dependent decrease of the response elicited by an EC80 concentration of acetylcholine. Concentration-response curves were generated using a four-parameter logistical equation in XLFit curve fitting software (IDBS, Bridgewater, N.J.) for Excel (Microsoft, Redmond, Wash.) or Prism (GraphPad Software, Inc., San Diego, Calif.) or the Dotmatics software platform (Dotmatics, Bishop's Stortford, UK).
Compounds were synthesized as described above. Activity (IC50 and Emin) was determined in the mAChR M4 cell-based functional assay as described above and the data are shown in Table 5. The compound numbers correspond to the compound numbers used in Examples 1-4 and Tables 1-4.

As for `CN1[C@@H]2C[C@@H](OC(=O)[C@H](CO)c3ccccc3)C[C@H]1[C@@H]1O[C@@H]12` [scopolamine], the “reducing catalepsy induced by haloperidol” value in the assay with mice (M4 KO mice) is “ineffective”. Besides, the “reversal of catalepsy induced by haloperidol” value in the assay on mice (WT mice) is given as “completely reversed”. Besides, the locomotor-activating effects result in the assay with M4 knockout mice is listed as “dramatically reduced”.

In general, IC50 refers to the concentration at which inhibition is half-maximal. Regarding `Cc1cnn(C)c1-c1ccc(NCCC2CCC3CN(CCC(C)(C)C)CC23)nn1` (stereo not shown) [Compound 10, N-[2-[2-(3,3-Dimethylbutyl)-3,3a,4,5,6,6a-hexahydro-1H-cyclopenta[c]pyrrol-4-yl]ethyl]-6-(2,4-dimethylpyrazol-3-yl)pyridazin-3-amine], on Human M4, the remaining activity at 30 µM was found to be 4.47% and the half-maximal inhibitory concentration (IC50) was 130 nM.

Take `Cc1cnn(C)c1-c1ccc(NCCC2CCC3CN(CC4CCOCC4)CC23)nn1` (stereo not shown) [Compound 12, 6-(2,4-dimethylpyrazol-3-yl)-N-[2-[2-(tetrahydropyran-4-ylmethyl)-3,3a,4,5,6,6a-hexahydro-1H-cyclopenta[c]pyrrol-4-yl]ethyl]pyridazin-3-amine]: at Human M4, the remaining activity at 30 µM is 29.4% and the IC50 was > 10000 nM.

Consider `Cc1cnn(C)c1-c1ccc(NCCC2CCC3CN(CCc4ccccc4)CC23)nn1` (stereo not shown) [Compound 16, 6-(2,4-dimethylpyrazol-3-yl)-N-[2-[2-(2-phenylethyl)-3,3a,4,5,6,6a-hexahydro-1H-cyclopenta[c]pyrrol-4-yl]ethyl]pyridazin-3-amine], for which, at Human M4, the remaining activity at 30 µM is 6.59% and the half-inhibitory concentration (IC50) amounted to 2210 nM.

With `Cc1cnn(C)c1-c1ccc(NCC2CCC3CN(CC4CC5C=CC4C5)CC23)nn1` (stereo not shown) [Compound 21, N-[[2-(5-bicyclo[2.2.1]hept-2-enylmethyl)-3,3a,4,5,6,6a-hexahydro-1H-cyclopenta[c]pyrrol-4-yl]methyl]-6-(2,4-dimethylpyrazol-3-yl)pyridazin-3-amine], on Human M4, the remaining activity at 30 µM stood at 5.19% and the half-inhibitory concentration (IC50) turned out to be 55 nM.

On to `Cc1cnn(C)c1-c1ccc(OC2CCC3CN(CCC(C)(C)C)CC32)nn1` (stereo not shown) [Compound 5, 2-(3,3-dimethylbutyl)-4-[6-(2,4-dimethylpyrazol-3-yl)pyridazin-3-yl]oxy-3,3a,4,5,6,6a-hexahydro-1H-cyclopenta[c]pyrrole], for which, at Human M4, the remaining activity at 30 µM turned out to be 9.66% and the half-inhibitory concentration (IC50) was determined as 3570 nM.

In the case of `Cc1cnn(C)c1-c1ccc(NCC2CCC3CN(Cc4ccccc4)CC23)nn1` (stereo not shown) [Compound 26, N-[(2-benzyl-3,3a,4,5,6,6a-hexahydro-1H-cyclopenta[c]pyrrol-4-yl)methyl]-6-(2,4-dimethylpyrazol-3-yl)pyridazin-3-amine], at Human M4, the remaining activity at 30 µM was determined as 16.1% and the IC50 was > 10000 nM.

Turning to `Cc1cnn(C)c1-c1ccc(OC2CCC3CN(CCc4ccccc4)CC32)nn1` (stereo not shown) [Compound 9, 4-[6-(2,4-dimethylpyrazol-3-yl)pyridazin-3-yl]oxy-2-(2-phenylethyl)-3,3a,4,5,6,6a-hexahydro-1H-cyclopenta[c]pyrrole], at Human M4, the remaining activity at 30 µM worked out at 29.6% and the IC50 is > 10000 nM.

In the case of `Cc1cnn(C)c1-c1ccc(NCC2CCC3CN(CCc4ccccc4)CC23)nn1` (stereo not shown) [Compound 23, 6-(2,4-dimethylpyrazol-3-yl)-N-[[2-(2-phenylethyl)-3,3a,4,5,6,6a-hexahydro-1H-cyclopenta[c]pyrrol-4-yl]methyl]pyridazin-3-amine], at Human M4, the remaining activity at 30 µM came to 5.96% and the 50% inhibitory concentration (IC50) was determined as 766 nM.
